These are literature values, as cited in US6995149B1, “Contraceptive process and kit for female mammals, comprising a combination of gestagen and oestrogen” (Schering AG, priority 1995, dated 2006).

Molecules are shown by their SMILES.

One data set deals with women. The settings on record: daily dose of 70 to 80 μg, pure gestagen preparation; in almost all women.
For data set [1] the following is noted: very small doses; ovulation is not always inhibited.

With `C#C[C@]1(O)CC[C@H]2[C@@H]3CCC4=CC(=O)CC[C@@H]4[C@H]3C(=C)C[C@@]21CC` [3-ketodesogestrel], the inhibition of ovulation entry with women is recorded as “In almost all women, these dosages cause inhibition of ovulation”.

Take `CC(=O)O[C@]1(C(C)=O)CC[C@H]2[C@@H]3C=C(Cl)C4=CC(=O)CC[C@]4(C)[C@H]3CC[C@@]21C` [chloromadinone acetate]: the contraceptive protection result in data set [1] is recorded as “afforded contraceptive protection”.

With `C#C[C@]1(O)CC[C@H]2[C@@H]3CCC4=CCCC[C@@H]4[C@H]3C(=C)C[C@@]21CC` [desogestrel], the inhibition of ovulation entry in the data set with women is “In almost all women, these dosages cause inhibition of ovulation”.
